Results reported in PMC10599993, “The PTPN2/PTPN1 inhibitor ABBV-CLS-484 unleashes potent anti-tumour immunity” (Nature, 2023).

Experiments:
[1] = molecular target: T1, PTPN2 (Homo sapiens, UniProt P17706); test: mobility shift enzyme assay with labelled insulin receptor phosphopeptide; type: biochemical
T1 construct: full-length recombinant

[2] = molecular target: T2, PTPN1 (Homo sapiens, UniProt P18031); test: as above; type: biochemical
T2 construct: full-length recombinant
T2 sequence (P18031 whole entry): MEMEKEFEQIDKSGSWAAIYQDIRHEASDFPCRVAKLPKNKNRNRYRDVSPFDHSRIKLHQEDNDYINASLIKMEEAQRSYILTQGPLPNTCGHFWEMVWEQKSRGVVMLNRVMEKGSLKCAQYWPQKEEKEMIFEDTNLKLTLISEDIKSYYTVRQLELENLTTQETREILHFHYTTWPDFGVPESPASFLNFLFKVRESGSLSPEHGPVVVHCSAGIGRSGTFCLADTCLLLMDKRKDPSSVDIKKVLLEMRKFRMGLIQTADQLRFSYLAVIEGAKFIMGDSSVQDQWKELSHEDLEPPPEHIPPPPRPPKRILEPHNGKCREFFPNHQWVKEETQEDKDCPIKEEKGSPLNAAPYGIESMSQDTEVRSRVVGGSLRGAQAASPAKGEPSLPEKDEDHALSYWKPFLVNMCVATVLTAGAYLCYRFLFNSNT

T1 sequence (P17706 whole entry): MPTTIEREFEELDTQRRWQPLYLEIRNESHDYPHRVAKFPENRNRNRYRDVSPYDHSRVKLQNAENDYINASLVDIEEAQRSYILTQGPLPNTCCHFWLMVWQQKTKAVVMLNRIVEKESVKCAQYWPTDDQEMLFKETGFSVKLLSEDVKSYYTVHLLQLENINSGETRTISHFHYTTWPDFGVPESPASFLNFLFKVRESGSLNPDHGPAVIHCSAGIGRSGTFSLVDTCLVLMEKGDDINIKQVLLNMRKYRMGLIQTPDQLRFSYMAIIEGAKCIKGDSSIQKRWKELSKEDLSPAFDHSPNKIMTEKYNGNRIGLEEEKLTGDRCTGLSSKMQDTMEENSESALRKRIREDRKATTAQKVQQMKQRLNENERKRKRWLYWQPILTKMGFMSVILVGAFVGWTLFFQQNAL

- IC50 [1]: 3.9 nM
- IC50 [2]: 2.8 nM
Compound: O=C1CN(c2c(O)cc3ccc(NCC4CC4)cc3c2F)S(=O)(=O)N1 [A-650]
